Assay results reported in paper PMC6979384, “Characterization of the plant homeodomain (PHD) reader family for their histone tail interactions” (Epigenetics & Chromatin, 2020).

How the values were obtained:
Test in all cases: Histone peptide microarray
Format in all cases: binding, human
[1] = test system: KDM5B (3); conditions: sheet "Array Heatmap"; GST-tagged KDM5B (3); arrays performed twice, total replicate number n = 4
Method in brief: (§1)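 Using an optimized microarray protocol, purified GST-tagged PHD fingers were incubated at 0.5 μM on 293 histone peptides with single or multiple modifications, and array signal was recorded as the average of 4 replicates.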

[2] = test system: AIRE (PP); conditions: sheet "Array Heatmap"; GST-tagged AIRE (PP); arrays performed twice, total replicate number n = 4
Method in brief: as §1

[3] = test system: ING4; conditions: sheet "Array Heatmap"; GST-tagged ING4; arrays performed twice, total replicate number n = 4
Method in brief: as §1

[4] = test system: KDM5A (3); conditions: sheet "Array Heatmap"; GST-tagged KDM5A (3); arrays performed twice, total replicate number n = 4
Method in brief: as §1

[5] = test system: PHF23; conditions: sheet "Array Heatmap"; GST-tagged PHF23; arrays performed twice, total replicate number n = 4
Method in brief: as §1

[6] = test system: ING3; conditions: sheet "Array Heatmap"; GST-tagged ING3; arrays performed twice, total replicate number n = 4
Method in brief: as §1

[7] = test system: PHRF1 (RP); conditions: sheet "Array Heatmap"; GST-tagged PHRF1 (RP); arrays performed twice, total replicate number n = 4
Method in brief: as §1

[8] = test system: DIDO1; conditions: sheet "Array Heatmap"; GST-tagged DIDO1; arrays performed twice, total replicate number n = 4
Method in brief: as §1

[9] = test system: ING1; conditions: sheet "Array Heatmap"; GST-tagged ING1; arrays performed twice, total replicate number n = 4
Method in brief: as §1

[10] = test system: RAG2; conditions: sheet "Array Heatmap"; GST-tagged RAG2; arrays performed twice, total replicate number n = 4
Method in brief: as §1

[11] = test system: CHD4 (PPCC); conditions: sheet "Array Heatmap"; GST-tagged CHD4 (PPCC); arrays performed twice, total replicate number n = 4
Method in brief: as §1

[12] = test system: PHF8; conditions: sheet "Array Heatmap"; GST-tagged PHF8; arrays performed twice, total replicate number n = 4
Method in brief: as §1

[13] = test system: MLL5; conditions: sheet "Array Heatmap"; GST-tagged MLL5; arrays performed twice, total replicate number n = 4
Method in brief: as §1

[14] = test system: BAZ2B; conditions: sheet "Array Heatmap"; GST-tagged BAZ2B; arrays performed twice, total replicate number n = 4
Method in brief: as §1

[15] = test system: ING5; conditions: sheet "Array Heatmap"; GST-tagged ING5; arrays performed twice, total replicate number n = 4
Method in brief: as §1

[16] = test system: PHF21A; conditions: sheet "Array Heatmap"; GST-tagged PHF21A; arrays performed twice, total replicate number n = 4
Method in brief: as §1

[17] = test system: TAF3; conditions: sheet "Array Heatmap"; GST-tagged TAF3; arrays performed twice, total replicate number n = 4
Method in brief: as §1

[18] = test system: ING2; conditions: sheet "Array Heatmap"; GST-tagged ING2; arrays performed twice, total replicate number n = 4
Method in brief: as §1

[19] = test system: TRIM66 (PB); conditions: sheet "Array Heatmap"; GST-tagged TRIM66 (PB); arrays performed twice, total replicate number n = 4
Method in brief: as §1

[20] = test system: MORC3 (CW); conditions: sheet "Array Heatmap"; GST-tagged MORC3 (CW); arrays performed twice, total replicate number n = 4
Method in brief: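 Readout is array binding signal, reported as the mean and standard deviation over four replicates. Each purified GST-fused PHD domain was incubated at 0.5 μM with a library of 293 modified histone peptides.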

[21] = test system: PHF2; conditions: sheet "Array Heatmap"; GST-tagged PHF2; arrays performed twice, total replicate number n = 4
Method in brief: as §1

[22] = test system: CHD5 (PPCC); conditions: sheet "Array Heatmap"; GST-tagged CHD5 (PPCC); arrays performed twice, total replicate number n = 4
Method in brief: as §1

[23] = test system: CHD5 (PCC); conditions: sheet "Array Heatmap"; GST-tagged CHD5 (PCC); arrays performed twice, total replicate number n = 4
Method in brief: as §1

[24] = test system: KDM4C (TTP); conditions: sheet "Array Heatmap"; GST-tagged KDM4C (TTP); arrays performed twice, total replicate number n = 4
Method in brief: as §1

[25] = test system: SP140L; conditions: sheet "Array Heatmap"; GST-tagged SP140L; arrays performed twice, total replicate number n = 4
Method in brief: as §1

[26] = test system: PHF13; conditions: sheet "Array Heatmap"; GST-tagged PHF13; arrays performed twice, total replicate number n = 4
Method in brief: as §1

[27] = test system: BPTF (PB); conditions: sheet "Array Heatmap"; GST-tagged BPTF (PB); arrays performed twice, total replicate number n = 4
Method in brief: as §1

[28] = test system: KDM5A (1); conditions: sheet "Array Heatmap"; GST-tagged KDM5A (1); arrays performed twice, total replicate number n = 4
Method in brief: as §1

[29] = test system: DPF2 (PPC2W2); conditions: sheet "Array Heatmap"; GST-tagged DPF2 (PPC2W2); arrays performed twice, total replicate number n = 4
Method in brief: as §1

[30] = test system: KDM7A; conditions: sheet "Array Heatmap"; GST-tagged KDM7A; arrays performed twice, total replicate number n = 4
Method in brief: as §1

[31] = test system: KDM5B (1); conditions: sheet "Array Heatmap"; GST-tagged KDM5B (1); arrays performed twice, total replicate number n = 4
Method in brief: as §1

Substance: H3K23me1 15-34: H3 15-34
- Array Heatmap signal, KDM5B (3) [1]: 0.4273
- Array Heatmap signal, AIRE (PP) [2]: 0.4449
- Array Heatmap signal, ING4 [3]: 0.3978
- Array Heatmap signal, KDM5A (3) [4]: 0.3565
- Array Heatmap signal, PHF23 [5]: 0.4553
- Array Heatmap signal, ING3 [6]: 0.3997
- Array Heatmap signal, PHRF1 (RP) [7]: 0.3534
- Array Heatmap signal, DIDO1 [8]: 0.5926
- Array Heatmap signal, ING1 [9]: 0.468
- Array Heatmap signal, RAG2 [10]: 0.2067
- Array Heatmap signal, CHD4 (PPCC) [11]: 0.5163
- Array Heatmap signal, PHF8 [12]: 0.3239
- Array Heatmap signal, MLL5 [13]: 0.5166
- Array Heatmap signal, BAZ2B [14]: 0.4158
- Array Heatmap signal, ING5 [15]: 0.3097
- Array Heatmap signal, PHF21A [16]: 0.4373
- Array Heatmap signal, TAF3 [17]: 0.2405
- Array Heatmap signal, ING2 [18]: 0.5717
- Array Heatmap signal, TRIM66 (PB) [19]: 0.5248
- Array Heatmap signal, MORC3 (CW) [20]: 0.2751
- Array Heatmap signal, PHF2 [21]: 0.3956
- Array Heatmap signal, CHD5 (PPCC) [22]: 0.4785
- Array Heatmap signal, CHD5 (PCC) [23]: 0.7691
- Array Heatmap signal, KDM4C (TTP) [24]: 0.4583
- Array Heatmap signal, SP140L [25]: 0.3205
- Array Heatmap signal, PHF13 [26]: 0.5337
- Array Heatmap signal, BPTF (PB) [27]: 0.3041
- Array Heatmap signal, KDM5A (1) [28]: 0.4342
- Array Heatmap signal, DPF2 (PPC2W2) [29]: 0.6371
- Array Heatmap signal, KDM7A [30]: 0.3872
- Array Heatmap signal, KDM5B (1) [31]: 0.6704
